From patent US8282952B2, “Insect attractant” (Activetrad (Proprietary) Limited, priority 2007, dated 2012) come the findings set out here.

Experiment [1] deals with Female medflies. In words: Delta trap catches in temperature controlled room, released female medflies. Particulars: for effect on medfly attraction when added to NATC 1%: Experiment 22.
Experiment [2] has as its system Female medflies. Nature of the experiment: Delta trap catches in orchards, released female medflies. The format is in vivo, Ceratitis capitata.

For `CN(C)Cc1c[nH]c2ccccc12` [Gramine], in experiment [1], the “effect on medfly attraction when added to NATC 1%” value (from here on “effect … to NATC 1%”) is on record as “suppressed medfly attraction”.

For the molecule `CCOC(=O)CC(SP(=S)(OC)OC)C(=O)OCC` (centres unmarked) [Malathion], the “times more female medflies caught with poison than without it” value in experiment [2] (in vivo) is on record as approximately 1.5 times.

Regarding `CC(=O)OCC[N+](C)(C)C.[Cl-]` [Acetyl choline chloride], the “times more attractive than the tri-ethanolamine mixtures” value in experiment [1] (as amine in the NATC/amine/NH4Ac/Molasses mixture) is recorded as “about 3 times”. For the same molecule, in experiment [1] (in vivo), the “more medflies attracted than Choline chloride (number)” value worked out at 284.2 and the “more medflies attracted than Choline chloride (percent)” value was determined as 93%.

With `Cc1cnc(C)c(C)n1` [2,3,5-Trimethyl pyrazine], the “effect … to NATC 1%” value in experiment [1] is “suppressed medfly attraction”.

For the molecule `C=C(C)[C@H]1Cc2c(ccc3c2O[C@@H]2COc4cc(OC)c(OC)cc4[C@@H]2C3=O)O1` [Rotenone], the “effect of the bait poison combined with NATC in YP on female medfly trap catches” value in experiment [2] (Experiment 7, 0.5% poison added to NATC 1% in YP vs NATC 1% in YP alone) was “small differences”.

Take `CC(=O)O` [acetic acid]: the “effect of addition on medfly trap catches with TEA” value in experiment [1] (Experiment 14, added to NATC + TEA) is listed as “seems to decrease”.

For the molecule `COc1cccc(C(N)=O)c1` [3-Methoxy benzamide], the “effect … to NATC 1%” value in experiment [1] is on record as “suppressed medfly attraction”.

For `CC(=O)O.N` [Ammonium acetate], in experiment [1] (in vivo), the “attracting partner for the NATC-0.5%+TEA-0.5% combination compared with Maltol 0.5%” value is given as “stronger attracting partner” and the “increase of trap catches by addition to the NATC-1%+TEA-1% mixture” value amounted to 272.5%.
